Measured values taken from patent US6914072B2, “Cannabinoid drugs” (Indevus Pharmaceuticals, Inc., priority 2000, dated 2005).

Columns and labels:
U87 = test: 48 hour MTT assay, U87 (brain); assay type: cell-based, human; conditions: 25 μM
Experimental: (§1) Cell proliferation assays. […] 5:69-84, 1995.
(§2) The proliferation of a number of human cell lines derived from a variety of cancer types (brain, breast, bladder, lung, and prostate) was tested for sensitivity to 25 μM of each agent for 48 hours.

U373 = test: 48 hour MTT assay, U373 (brain); assay type: cell-based, human; conditions: 25 μM
Experimental: as §1, §2

U118 = test: 48 hour MTT assay, U118 (brain); assay type: cell-based, human; conditions: 25 μM
Experimental: as §1, §2

A172 = test: 48 hour MTT assay, A172 (brain); assay type: cell-based, human; conditions: 25 μM
Experimental: as §1, §2

HS578T = test: 48 hour MTT assay, HS578T (breast); assay type: cell-based, human; conditions: 25 μM
Experimental: as §1, §2

HT1376 = test: 48 hour MTT assay, HT1376 (bladder); assay type: cell-based, human; conditions: 25 μM
Experimental: as §1, §2

J82 = test: 48 hour MTT assay, J82 (bladder); assay type: cell-based, human; conditions: 25 μM
Experimental: as §1, §2

Calu6 = test: 48 hour MTT assay, Calu6 (lung); assay type: cell-based, human; conditions: 25 μM
Experimental: as §1, §2

Du145 = test: 48 hour MTT assay, Du145 (prostate); assay type: cell-based, human; conditions: 25 μM
Experimental: as §1, §2

PC3 = test: 48 hour MTT assay, PC3 (prostate); assay type: cell-based, human; conditions: 25 μM
Experimental: as §1, §2

[1] = system: human cell lines derived from a variety of cancer types (brain, breast, bladder, lung, and prostate); test: 48 hour MTT assay, panel of ten human cancer cell lines (mean); assay type: cell-based; conditions: 25 μM; for Inhibition level (mean±SD) over the human cancer cell lines: 48 hours, mean±SD of ten lines
Experimental: as §1, §2

C6 cells [2] = test: Cell morphology (phase and electron microscopy), C6 cells; assay type: cell-based
Experimental: (§3) In order to investigate this effect further, the effect of ajulemic acid on cell cycle kinetics was assessed. C6 glioma cells were incubated for 24 hours in media containing 0.5% serum to synchronize them in G1/G0. The cells were then exposed to media containing 10% serum either with or without 25 μM ajulemic acid for two days.
Third, another distinctive feature of ajulemic acid's antitumor effect was the appearance of retractile bodies that could be easily visualized with phase microscopy. Both the number of cells that had refractile bodies as well as the number of refractile bodies/cell increased over time. After 48 hours, 83% of ajulemic acid-treated C6 cells had one or more refractile bodies compared to 27% to THC-treated cells (p<0.001, Chi-square analysis). The mean number of refractile bodies per cell was also much higher for ajulemic acid-treated cells compared to THC-treated cells (1.78±1.6 vs. 0.22±0.5 per cell, p<0.001, t-test).
To further explore the nature of the cell enlargement and refractile bodies, cells were examined under electron microscopy. […] In fact, these cells appeared metabolically active. […] Moreover, ajulemic acid-treated cells were enlarged and contained large lipid droplets, the identity of which was confirmed by […].

C6 glioma cells [3] = test: MTT cell proliferation assay, C6 glioma cells; assay type: cell-based
Experimental: as §1, §2

C6 glioma cells [4] = test: Co-incubation of C6 glioma cells with a CB1 antagonist; assay type: cell-based; conditions: 3.2 μM of a specific CB1 antagonist
Excerpt: as §1
First, the compound's inhibition of cell proliferation was not reversible with a CB1 antagonist.

C6 glioma cells [5] = test: Flow cytometry/cell cycle analysis; assay type: cell-based; conditions: 25 μM, two days in 10% serum after synchronization; control 4.4 ± 0.3
Experimental: Flow cytometry/cell cycle analysis. For flow cytometry, cells were grown in low serum (0.5%) for two days to synchronize cells in G0/G1, after which they were placed in high serum (10%) for two days. The cells were then labeled with propidium iodide and fixed in 4% paraformaldehyde. Cells were examined using a MoFlo Facs sorter for DNA content.
as §3

WI38 cells = test: Refractile bodies by phase microscopy, WI38 cells; assay type: cell-based, rat; conditions: same length of time and dosage (48 hours)
C6 cells [6] = test: Viability by trypan blue exclusion; assay type: cell-based; conditions: ajulemic acid-treated cells
C6 cells [7] = test: Lipid incorporation assay (14C-arachidonic acid); assay type: cell-based; conditions: 25 μM, 48 hours
PKC activity in C6 cells = test: Protein kinase C (PKC) assay; assay type: cell-based; conditions: 25 μM
Experimental: Protein kiniase C (PKC) assay. Cells were transferred into MEM media (0.5% serum) and cultured overnight. The next day, cells were treated with either DMSO or 25 μM ajulemic acid for the specified incubation time, after which the plates were trypsinized. 5×10^6 trypsinized cells were assayed for PKC activity using a kit (Calbiochem, cat. no. 53984).
Because diacyl glycerol (DAG) is an important signal transducer of protein kinase C, the effect of ajulemic acid treatment on the PKC activity in C6 cells was examined. […] At least two alternative explanations for this observation exist: (1) the PKC isozymes that were stimulated were those with slow growth, such as PKCδ; and (2) the increased DAG was modulating some other downstream mediator, such as β-chimaerin, to a greater extent such that the balance is towards anti-proliferation.

[8] = system: human glioma cell line U87; test: In vivo subcutaneous U87 nude mouse tumor model; set-up: species or system male nu/nu BALBc mice; conditions: 0.1 mg/kg thrice weekly, FIG. 4
Experimental: In vivo subcutaneous model. 10^6 U87 cells were injected into the right […] of male nu/nu BALBc mice (Charles River). Two days after inoculation, the mice received either 0.1 mg/kg ajulemic acid in 0.05 ml of safflower oil, or 0.05 ml safflower oil by oral administration. Thereafter, identical dosings were performed on each Monday, Wednesday, and Friday. When visible tumors appeared, the size of the tumors were estimated by averaging the values of two roughly perpendicular diameters measurements. Visible tumors were measured on the days of drug administration.
Whether ajulemic acid has in vivo antitumor activity was determined using a nude mouse tumor model. The growth of the human glioma cell line U87 injected subcutaneously in nude mice was assessed with and without ajulemic acid administration. For these experiments, ajulemic acid treatment was initiated two days after inoculation of 10^6 tumor cells in the mice. […] At day 25 post-inoculation, 5 of 5 control mice had tumors with a mean diameter of 16.3±3.2 mm, while the mean diameter in the treated group was 3.8±8.5 mm (n=5, p-0.015, t-test).

[9] = system: normal fibroblast cell line WI38; test: MTT cell proliferation assay, WI38 cells; conditions: 25 μM, two days, three different experiments
[10] = Stereospecificity of the proliferation effect (D-isomer vs L-isomer); assay type: cell-based; conditions: 25 μM dose, p<0.001, FIG. 2
Excerpt: as §1
To assess whether ajulemic acid's effect was receptor-mediated, a preparation 95% enriched in the D-isomer of ajulemic acid was used to examine the stereospecificity of the effect observed above.

Row | SMILES | Percent inhibition of human cancer cell line growth in 48 hour MTT assay (U87) [%] | Percent inhibition of human cancer cell line growth in 48 hour MTT assay (U373) [%] | Percent inhibition of human cancer cell line growth in 48 hour MTT assay (U118) [%] | Percent inhibition of human cancer cell line growth in 48 hour MTT assay (A172) [%] | Percent inhibition of human cancer cell line growth in 48 hour MTT assay (HS578T) [%] | Percent inhibition of human cancer cell line growth in 48 hour MTT assay (HT1376) [%] | Percent inhibition of human cancer cell line growth in 48 hour MTT assay (J82) [%] | Percent inhibition of human cancer cell line growth in 48 hour MTT assay (Calu6) [%] | Percent inhibition of human cancer cell line growth in 48 hour MTT assay (Du145) [%] | Percent inhibition of human cancer cell line growth in 48 hour MTT assay (PC3) [%] | Inhibition level (mean±SD) over the human cancer cell lines [1] [%] | other results
1 | CCCCCc1cc(O)c2c(c1)OC(C)(C)[C@@H]1CC=C(C(=O)O)C[C@@H]21 [THC-11-oic acid, reference compound] | 5 ± 1 | 0 | 14 ± 3 | 61 ± 2 | 2 ± 1 | 21 ± 12 | 3 ± 1 | 19 ± 5 | 7 ± 3 | 1 ± 1 | 13.1±18.5 | Refractile bodies (in words), C6 glioma cells (C6 cells [2]; 25 μM, 48 hours): no retractile bodies were noted
2 | CCCCCCC(C)(C)c1cc(O)c2c(c1)OC(C)(C)[C@@H]1CC=C(C(=O)O)C[C@@H]21 [ajulemic acid, 1′,1′-dimethylheptyl-Δ^8-THC11-oic acid] | 54 ± 2 | 34 ± 1 | 60 ± 2 | 76 ± 1 | 60 ± 2 | 60 ± 2 | 57 ± 3 | 69 ± 3 | 74 ± 2 | 69 ± 2 | 61.3 ±12.1 | Inhibition of C6 cell proliferation (C6 glioma cells [3]; 25 μM, two days, three different experiments): 65%; IC50 (C6 glioma cells [3]; C6 glioma cells, FIG. 1, read-out: IC50, inhibition of C6 glioma cells (MTT assay)): 55 µM; Effectiveness compared to THC in the ten lines ([1]; p<0.05, in six of the ten lines tested): significantly more effective; Change of effect on co-incubation with CB1 antagonist (in words) (C6 glioma cells [4]): slight potentiation; S (mean % ± SD) (C6 glioma cells [5]): 13.0%; Appearance of treated cells under electron microscopy (C6 cells [2]): neither apoptotic nor necrotic; Refractile bodies (in words), WI38 cells (WI38 cells): no retractile bodies were noted; Viability rate by trypan blue exclusion (C6 cells [6]): > 95%; Content of tri- and di-glyceride relative to controls (C6 cells [7]): over three-fold greater than in controls; Neutral lipids (14C-arachidonic acid incorporation) versus basal levels (C6 cells [7]; p<0.05 Dunnett's test, FIG. 3): significant increase above basal levels; Onset of PKC activity increase (PKC activity in C6 cells): increased within five minutes; PKC activity relative to control (PKC activity in C6 cells; for one hour): approximately two-fold above that of control; Tumor appearance and size (in words) [8]: A delay in both the appearance and size of tumors; Inhibition of WI38 cell proliferation [9]: 44%
3 | CCCCCc1cc(O)c2c(c1)OC(C)(C)[C@@H]1CCC(C)=C[C@@H]21 [Δ^9-THC, tetrahydrocannabinol, reference compound] |  |  |  |  |  |  |  |  |  |  |  | Decrease in potency on co-incubation with CB1 antagonist (C6 glioma cells [4]): 150%
4 | CCCCCCC(C)(C)c1cc(O)c2c(c1)OC(C)(C)[C@@H]1CC=C(C(=O)O)C[C@@H]21 (single isomer, unassigned) [D-isomer of ajulemic acid] |  |  |  |  |  |  |  |  |  |  |  | Potency of D-isomer compared to L-isomer of ajulemic acid [10]: marked decrease in the potency
